Laboratory results from paper PMC9455805, “Preparation, Characterization and In Vitro Stability of a Novel ACE-Inhibitory Peptide from Soybean Protein” (Foods, 2022).
“Also recorded” adds a separate entry of the source. Where two headings read alike, the source gives them in different places. Peptide text beside a SMILES is read from it.

Assays:
[1] = tested on: pepsin and pancreatin; assay: In vitro simulated gastrointestinal digestion, then ACE-inhibitory activity assay and ESI-MS; type: in vitro ADME
Experimental: Pepsin (1 mg) was added, and the mixture was stirred at 37 °C for 2 h. Then, the pH was adjusted to 6 with 0.9 M NaHCO3, and afterwards to 7.5 with 1 M NaOH. Pancreatin (1 mg) was added, and the solution was incubated at 37 °C for 4 h.

[2] = tested on: ACE; parameters: method as in 5 sources, ref 34 = [34]; PMID 12843654; doi:10.1271/bbb.67.1278; 34. Kuba M. Tanaka K. Tawata S. Takeda Y. Yasuda M. Angiotensin I-converting enzyme inhibitory peptides isolated from tofuyo fermented soybean food Biosci. Biotechnol. Biochem. 2003 67 1278 1283 10.12 ||| ref 33 = [33]; PMID 25410725; doi:10.1002/bab.1321; 33. Sornwatana T. Bangphoomi K. Roytrakul S. Wetprasit N. Choowongkomon K. Ratanapo S. Chebulin: Terminalia chebula Retz. fruit-derived peptide with angiotensin-I–converting enzyme inhibitory activity ||| ref 35 = [35]; doi:10.1016/j.foodchem.2010.05.026; 35. Jiang Z. Tian B. Brodcrob A. Huo G. Production, analysis and in vivo evaluation of novel angiotensin-I-converting enzyme inhibitory peptides from bovine casein Food Chem. 2010 123 779 786 10.1016/ ||| ref 7 = [7]; doi:10.1016/j.foodchem.2009.04.086; 7. Lee S.H. Qian Z.J. Kim S.K. A novel angiotensin I converting enzyme inhibitory peptide from tuna frame protein hydrolysate and its antihypertensive effect in spontaneously hypertensive rats Food Ch ||| ref 36 = [36]; PMID 23140680; doi:10.1016/j.foodchem.2011.01.010; 36. Jang J.H. Jeong S.C. Kim J.H. Lee Y.H. Ju Y.C. Lee J.S. Characterisation of a new antihypertensive angiotensin I-converting enzyme inhibitory peptide from Pleurotus cornucopiae Food Chem. 2011 127; settings: cited from earlier work; for IC50: read-out: IC50 (ACE, non-competitive peptide)
[3] = from Pleurotus cornucopiae mushroom

## N=C(N)NCCC[C@H](NC(=O)[C@H](CC(=O)O)NC(=O)[C@@H](N)CC(N)=O)C(=O)N1CCC[C@H]1C(=O)O [NDRP] (H-NDRP-OH)
[1]; 10 mg mL−1 in H2O, pepsin, pH 2, 37 °C, 2 h, then pancreatin, pH 7.5, 37 °C, 4 h, enzymes deactivated in boiling water bath 10 min, freeze-dried, read-out ACE assay
  maximal ACE inhibition of the in vitro-digested sample: 82.47 ± 1.07%
[1]; after pepsin (pH 2, 2 h) and pancreatin (pH 7.5, 4 h) at 37 °C, ratio of maximal ACE inhibition, digested vs pure NDRP
  residual ACE-inhibitory activity of the digested sample relative to pure peptide: 94%
[1]; pepsin (pH 2, 2 h) then pancreatin (pH 7.5, 4 h), 37 °C, ACE assay and ESI-MS (peak of intact peptide observed)
  stability toward in vitro simulated gastrointestinal digestion (in words): stable towards gastrointestinal simulated digestion; also recorded: might be resistant to gastrointestinal digestion; also recorded: highly stable

## DENSKF
[2]; from fruits of T. chebula Retz.
  IC50: 100 µM

## DERF
[2]; from bovine casein hydrolysate
  IC50 (ACE, non-competitive peptide): 21 µg/mL

## GDLGKTTTVSNWSPPKYKDTP
[2]; from tuna frame protein hydrolysate
  IC50: 11.3 µM

## RLPSEFDLSAFLRA
[2]; [3]
  IC50 (ACE, non-competitive peptide): 450 µg/mL

## RLSGQTIEVTSEYLFRH
[2]; [3]
  IC50 (ACE, non-competitive peptide): 1100 µg/mL

## RYPSYG
[2]; from bovine casein hydrolysate
  IC50 (ACE, non-competitive peptide): 54 µg/mL
